Experimental data: ChEMBL document CHEMBL1201862, “PubChem BioAssay data set” (2004)
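Cells were grown in 96-well plates and exposed to each compound for 48 hours at five concentrations; endpoints were interpolated linearly between bracketing concentrations, or set to the highest concentration if not reached. GI50 marks 50% less growth.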 Active and inactive are the calls of the source. No stated cut-off is given here; in the data, active = GI50 up to about 1.1 µM and inactive = higher.

Tests used:
Assay in all cases: NCI anticancer screen, dose series, 48 h
[1] = tested on: BT-549
[2] = tested on: PC-3
[3] = tested on: M14
[4] = tested on: MOLT-4
[5] = tested on: NCI-H522
[6] = tested on: SNB-19
[7] = tested on: TK-10
[8] = tested on: SF-268
[9] = tested on: HCT-15
[10] = tested on: NCI-H460
[11] = tested on: SR
[12] = tested on: Malme-3M
[13] = tested on: 786-0
[14] = tested on: IGROV-1
[15] = tested on: EKVX
[16] = tested on: COLO 205
[17] = tested on: UACC-62
[18] = tested on: SK-MEL-5
[19] = tested on: HT-29
[20] = tested on: UACC-257
[21] = tested on: U-251
[22] = tested on: SF-295
[23] = tested on: HOP-92
[24] = tested on: HCT-116
[25] = tested on: HCC 2998
[26] = tested on: MDA-MB-435
[27] = tested on: MCF7
[28] = tested on: LOX IMVI
[29] = tested on: HOP-62
[30] = tested on: CAKI-1
[31] = tested on: SK-MEL-28
[32] = tested on: RXF 393
[33] = tested on: MDA-N
[34] = tested on: RPMI-8226
[35] = tested on: A498
[36] = tested on: MDA-MB-231
[37] = tested on: OVCAR-4
[38] = tested on: T47D
[39] = tested on: Hs-578T
[40] = tested on: K562
[41] = tested on: A549
[42] = tested on: SF-539
[43] = tested on: KM12
[44] = tested on: SW-620
[45] = tested on: OVCAR-8
[46] = tested on: OVCAR-3
[47] = tested on: OVCAR-5
[48] = tested on: UO-31
[49] = tested on: DU-145
[50] = tested on: NCI/ADR-RES
[51] = tested on: SK-MEL-2
[52] = tested on: ACHN
[53] = tested on: CCRF-CEM
[54] = tested on: SN12C
[55] = tested on: SNB-75
[56] = tested on: HL-60
[57] = tested on: SK-OV-3
[58] = tested on: NCI-H226
[59] = tested on: NCI-H23

## COc1ccc(-c2oc3cc(OC)ccc3c(=O)c2O)cc1
[1]
  GI50: 0.668 µM (active)
[2]
  GI50: > 100 µM (inactive)
[3]
  GI50: > 25.5 µM (inactive)
[4]
  GI50: 2.66 µM (inactive)
[5]
  GI50: 3.18 µM (inactive)
[6]
  GI50: > 100 µM (inactive)
[7]
  GI50: > 100 µM (inactive)
[8]
  GI50: 5.13 µM (inactive)
[9]
  GI50: 3.63 µM
[10]
  GI50: 3.37 µM (inactive)
[11]
  GI50: 3.57 µM (inactive)
[12]
  GI50: > 31.6 µM (inactive)
[13]
  GI50: 9.02 µM (inactive)
[14]
  GI50: 4.25 µM (inactive)
[15]
  GI50: > 100 µM (inactive)
[16]
  GI50: > 100 µM (inactive)
[17]
  GI50: 5.19 µM (inactive)
[18]
  GI50: > 100 µM (inactive)
[19]
  GI50: > 100 µM (inactive)
[20]
  GI50: > 100 µM (inactive)
[21]
  GI50: 3.31 µM (inactive)
[22]
  GI50: 4.79 µM (inactive)
[23]
  GI50: 3.42 µM (inactive)
[24]
  GI50: 4.15 µM (inactive)
[25]
  GI50: > 10 µM (inactive)
[26]
  GI50: > 27.7 µM (inactive)
[27]
  GI50: 3.43 µM (inactive)
[28]
  GI50: 4.12 µM (inactive)
[29]
  GI50: 3.7 µM (inactive)
[30]
  GI50: 2.53 µM (inactive)
[31]
  GI50: > 25.4 µM (inactive)
[32]
  GI50: 3.15 µM (inactive)
[33]
  GI50: > 100 µM (inactive)
[34]
  GI50: > 23.1 µM (inactive)
[35]
  GI50: > 100 µM (inactive)
[36]
  GI50: 43.4 µM (inactive)
[37]
  GI50: 3.88 µM (inactive)
[38]
  GI50: 9.42 µM (inactive)
[39]
  GI50: 1.54 µM (inactive)

## O=C1O/C(=C\C=C\CO)C=C1/C=C/CO [LISSOCLINOLIDE]
[40]
  GI50: 31.2 µM (inactive)
[41]
  GI50: 36.4 µM (inactive)
[42]
  GI50: 24.1 µM (inactive)
[43]
  GI50: 36.9 µM (inactive)
[44]
  GI50: 18.2 µM (inactive)
[1]
  GI50: 20 µM (inactive)
[2]
  GI50: 14.3 µM (inactive)
[45]
  GI50: 19.2 µM (inactive)
[46]
  GI50: 24.2 µM (inactive)
[3]
  GI50: 20.2 µM (inactive)
[4]
  GI50: 50.6 µM (inactive)
[5]
  GI50: 10.3 µM (inactive)
[47]
  GI50: 20 µM (inactive)
[6]
  GI50: 23.5 µM (inactive)
[7]
  GI50: 19.1 µM (inactive)
[8]
  GI50: 24.5 µM (inactive)
[9]
  GI50: 12.3 µM
[10]
  GI50: 32.1 µM (inactive)
[11]
  GI50: 34.9 µM (inactive)
[48]
  GI50: 16.5 µM (inactive)
[49]
  GI50: 21 µM (inactive)
[12]
  GI50: 13.8 µM (inactive)
[50]
  GI50: 33.3 µM (inactive)
[13]
  GI50: 12.5 µM (inactive)
[14]
  GI50: 16 µM (inactive)
[51]
  GI50: 19.3 µM (inactive)
[15]
  GI50: 15.3 µM (inactive)
[16]
  GI50: 2.23 µM (inactive)
[52]
  GI50: 24.2 µM (inactive)
[17]
  GI50: 18.9 µM (inactive)
[18]
  GI50: 22.1 µM (inactive)
[19]
  GI50: 23 µM (inactive)
[53]
  GI50: 22.9 µM (inactive)
[54]
  GI50: 27.9 µM (inactive)
[21]
  GI50: 40.8 µM (inactive)
[22]
  GI50: 39 µM (inactive)
[24]
  GI50: 14 µM (inactive)
[26]
  GI50: 35.7 µM (inactive)
[27]
  GI50: 36.3 µM (inactive)
[55]
  GI50: > 100 µM (inactive)
[28]
  GI50: 35.6 µM (inactive)
[30]
  GI50: 14.5 µM (inactive)
[56]
  GI50: 29.3 µM (inactive)
[31]
  GI50: 24.4 µM (inactive)
[32]
  GI50: 19 µM (inactive)
[33]
  GI50: 21.3 µM (inactive)
[57]
  GI50: 61.2 µM (inactive)
[58]
  GI50: 36.5 µM (inactive)
[34]
  GI50: 16.4 µM (inactive)
[36]
  GI50: 21.3 µM (inactive)
[37]
  GI50: 45.5 µM (inactive)
[38]
  GI50: 20.7 µM (inactive)
[59]
  GI50: 18.5 µM (inactive)

## O=S1(=O)OCCCOS(=O)(=O)C1Br
[41]
  GI50: > 100 µM (inactive)
[42]
  GI50: > 100 µM (inactive)
[43]
  GI50: > 100 µM (inactive)
[44]
  GI50: > 100 µM (inactive)
[1]
  GI50: > 100 µM (inactive)
[2]
  GI50: > 100 µM (inactive)
[45]
  GI50: > 100 µM (inactive)
[46]
  GI50: > 100 µM (inactive)
[3]
  GI50: > 100 µM (inactive)
[4]
  GI50: > 100 µM (inactive)
[5]
  GI50: > 100 µM (inactive)
[47]
  GI50: > 100 µM (inactive)
[6]
  GI50: > 100 µM (inactive)
[7]
  GI50: > 100 µM (inactive)
[8]
  GI50: > 100 µM (inactive)
[9]
  GI50: > 100 µM
[11]
  GI50: > 100 µM (inactive)
[48]
  GI50: > 100 µM (inactive)
[49]
  GI50: > 100 µM (inactive)
[12]
  GI50: > 100 µM (inactive)
[50]
  GI50: > 100 µM (inactive)
[13]
  GI50: > 100 µM (inactive)
[51]
  GI50: > 100 µM (inactive)
[15]
  GI50: > 100 µM (inactive)
[16]
  GI50: > 100 µM (inactive)
[52]
  GI50: > 100 µM (inactive)
[17]
  GI50: > 100 µM (inactive)
[18]
  GI50: > 100 µM (inactive)
[19]
  GI50: > 100 µM (inactive)
[54]
  GI50: > 100 µM (inactive)
[20]
  GI50: > 100 µM (inactive)
[21]
  GI50: > 100 µM (inactive)
[22]
  GI50: > 100 µM (inactive)
[24]
  GI50: > 100 µM (inactive)
[25]
  GI50: > 100 µM (inactive)
[26]
  GI50: > 100 µM (inactive)
[27]
  GI50: > 100 µM (inactive)
[55]
  GI50: > 100 µM (inactive)
[28]
  GI50: > 100 µM (inactive)
[29]
  GI50: > 100 µM (inactive)
[30]
  GI50: > 100 µM (inactive)
[31]
  GI50: > 100 µM (inactive)
[32]
  GI50: > 100 µM (inactive)
[33]
  GI50: > 100 µM (inactive)
[57]
  GI50: > 100 µM (inactive)
[58]
  GI50: > 100 µM (inactive)
[34]
  GI50: > 100 µM (inactive)
[37]
  GI50: > 100 µM (inactive)
[38]
  GI50: > 100 µM (inactive)
[59]
  GI50: > 100 µM (inactive)

## OC(Cc1ccccc1)(Cc1ccccc1)c1ccccc1
[40]
  GI50: 26.8 µM (inactive)
[41]
  GI50: 19.5 µM (inactive)
[43]
  GI50: 18.3 µM (inactive)
[44]
  GI50: 22.2 µM (inactive)
[1]
  GI50: 18.7 µM (inactive)
[2]
  GI50: 18.7 µM (inactive)
[45]
  GI50: 19 µM (inactive)
[46]
  GI50: 18.2 µM (inactive)
[3]
  GI50: 17.7 µM (inactive)
[4]
  GI50: 24.6 µM (inactive)
[5]
  GI50: 14.7 µM (inactive)
[47]
  GI50: 17.2 µM (inactive)
[6]
  GI50: 26.1 µM (inactive)
[7]
  GI50: 19.8 µM (inactive)
[8]
  GI50: 14.9 µM (inactive)
[9]
  GI50: 20.5 µM
[10]
  GI50: 19.4 µM (inactive)
[11]
  GI50: 25.1 µM (inactive)
[48]
  GI50: 17.5 µM (inactive)
[49]
  GI50: 17.7 µM (inactive)
[12]
  GI50: 13.1 µM (inactive)
[50]
  GI50: 23 µM (inactive)
[13]
  GI50: 15.2 µM (inactive)
[14]
  GI50: 16.3 µM (inactive)
[51]
  GI50: 15.3 µM (inactive)
[15]
  GI50: 12.3 µM (inactive)
[52]
  GI50: 18.4 µM (inactive)
[17]
  GI50: 16.9 µM (inactive)
[18]
  GI50: 18 µM (inactive)
[19]
  GI50: 15.9 µM (inactive)
[53]
  GI50: 20.7 µM (inactive)
[54]
  GI50: 17 µM (inactive)
[20]
  GI50: 18.5 µM (inactive)
[21]
  GI50: 18.1 µM (inactive)
[22]
  GI50: 19.3 µM (inactive)
[23]
  GI50: 16.9 µM (inactive)
[24]
  GI50: 16.2 µM (inactive)
[26]
  GI50: 17.5 µM (inactive)
[28]
  GI50: 18.3 µM (inactive)
[29]
  GI50: 19.7 µM (inactive)
[30]
  GI50: 23.2 µM (inactive)
[56]
  GI50: 22 µM (inactive)
[31]
  GI50: 21.9 µM (inactive)
[32]
  GI50: 15.3 µM (inactive)
[33]
  GI50: 15.2 µM (inactive)
[58]
  GI50: 18.4 µM (inactive)
[34]
  GI50: 29.3 µM (inactive)
[35]
  GI50: 19.9 µM (inactive)
[36]
  GI50: 19 µM (inactive)
[37]
  GI50: 16.9 µM (inactive)
[38]
  GI50: 33.7 µM (inactive)
[59]
  GI50: 18.8 µM (inactive)
